# Patent US4450160A, “1,2-Dihydropyrido[3,4-b]-pyrazines and method and intermediates for preparing same” (Southern Research Institute, priority 1982, dated 1984)
# Columns and labels:
# [1] = test system: cultured lymphoid leukemia L1210 cells; test: Mitotic Index, fraction of cultured L1210 cells in mitoses (metaphase); assay type: cell-based
# [2] = test system: lymphoid leukemia L1210 cells; test: inhibition of proliferation of cultured lymphoid leukemia L1210 cells; assay type: cell-based; settings: Mus musculus, concentration that inhibits proliferation to 50% of control growth, 24 hours, (g) = average of 2 determinations, read-out: L1210 ID50
# From the text: (b) Concentration of agent that inhibits proliferation of cultured lymphoi
# leukemia L1210 cells to 50% control growth.
# [3] = test system: Lymphocytic leukemia P388; test: P388 lymphocytic leukemia, 10^6 tumor cell implant, i.p., % ILS; assay type: in vivo, mice
# From the text: (d) Lymphocytic leukemia p388. Geran, R. I., Greenberg, N. H., MacDonald,
# M. M., Schulacker, A. M., Abott, B. J., Cancer Chemother. Rep., 1972, Par
# KB cell culture = settings: abstract, Gatlinburg 1976; cited from earlier work
# leukemia L1210 = settings: mouse, in vivo; cited from earlier work
# Saccharomyces cerevisiae = test: antifungal activity; assay type: cell-based
# Experimental: (§1) The 1,2-dihydropyrido[3,4-b]pyrazines at concentrations that prevented any increase in the cell number during a 24 hour period had little effect upon the synthesis of DNA, RNA, and protein by cultured L1210 cells during exposure for four hours. […] Exposure of cultured L1210 cells to the 1,2-dihydropyrido[3,4-b]pyrazines inhibited cell division as measured by the mitotic index (MI) (Table V), which is the fraction of the cell population that is made up of metaphase cells. […] For example, 5-amino-1,2-dihydro-3-phenylpyrido[3,4-b]pyrazin-7-ylcarbamate was active against Saccharomyces cerevisiae, Asperigillus niger, Penicillium italicum and Botrytis cinereae.
# Asperigillus niger = test: antifungal activity; assay type: cell-based
# Experimental: as §1
# Botrytis cinereae = test: antifungal activity; assay type: cell-based
# Experimental: as §1
# Penicillium italicum = test: antifungal activity; assay type: cell-based
# Experimental: as §1
# [4] = test system: P388 cells that were resistant to vincristine; test: vincristine-resistant line of P388 in mice; assay type: in vivo
# From the text: (h) Vincristineresistant line of P388. Wilkoff, L. J. and Dulmadge, E. A.,
# [5] = Mus musculus, P388, ip, 24 h, i.p. implant, day 1
# [6] = Mus musculus, P388, ip, i.p. implant, days 1-9
# [7] = Mus musculus, P388, ip, i.p. implant, days 1-5
# [8] = Mus musculus, P388, ip, i.p. implant, days 1-5, 10 mg/kg
compound,measurement,setting,value
CCOC(=O)Nc1cc2c(c(N)n1)N=C(c1ccc(OC)cc1)CN2 [4-CH3 OC6 H4],Mitotic Index 24h,[1]; 0.3 μM,0.27
same,IC50,[2],0.0041 µM
same,ILS at 25 mg/kg,[3]; [5],50%
same,ILS at 25 mg/kg,"[3]; Mus musculus, P388, ip, i.p. implant, days 1,5,9",63%
same,ILS at 3 mg/kg,[3]; [6],35%
"CCOC(=O)Nc1cc2c(c(N)n1)N=C(c1ccc(C)cc1C)CN2 [2,4-(CH3)2 C6 H3]",Mitotic Index 12h,[1]; 0.1 μM,0.66
same,IC50,[2],0.042 µM
same,ILS at 20 mg/kg,"[3]; Mus musculus, P388, ip, i.p. implant, days 1-5, 20 mg/kg (highest dose tested)",23%
CCOC(=O)Nc1cc2c(c(N)n1)N=C(c1ccc(F)cc1)CN2 [4-FC6 H4],Mitotic Index 12h,[1]; 0.01 μM,0.47
same,IC50,[2],0.0068 µM
same,ILS at 3 mg/kg,[3]; [7],49%
"CCOC(=O)Nc1cc2c(c(N)n1)N=C(c1cc(OC)c(OC)c(OC)c1)CN2 [3,4,5-(CH3 O)3 C6 H2]",Mitotic Index 12h,[1]; 0.3 μM,0.41
"CCOC(=O)Nc1cc2c(c(N)n1)N=C(c1ccc(C)c(C)c1)CN2 [3,4-(CH3)2 C 6 H3]",Mitotic Index 24h,[1]; 0.3 μM,0.16
same,IC50,[2],0.138 µM
same,ILS at 12.5 mg/kg,[3]; [7],44%
CCOC(=O)Nc1cc2c(c(N)n1)N=C(c1ccc(C)cc1)CN2 [4-CH3 C6 H4],Mitotic Index 24h,[1]; 0.3 μM,0.22
same,IC50,[2],0.024 µM
same,ILS at 12 mg/kg,"[3]; Mus musculus, P388, ip, i.p. implant, days 1-5, 12 mg/kg",30%
"CC[C@]1(O)C[C@H]2CN(CCc3c([nH]c4ccccc34)[C@@](C(=O)OC)(c3cc4c(cc3OC)N(C=O)[C@H]3[C@@](O)(C(=O)OC)[C@H](OC(C)=O)[C@]5(CC)C=CCN6CC[C@]43[C@@H]65)C2)C1 [Vincristine, reference compound]",IC50,[2],< 0.001 µM
same,ILS at 2.7 mg/kg,"[3]; Mus musculus, P388, ip, 24 h, i.p. implant, day 1, 2.7 mg/kg",100%
same,ILS at 1.3 mg/kg,"[3]; Mus musculus, P388, ip, i.p. implant, days 1,5,9, 1.3 mg/kg",181%
same,ILS at 0.33 mg/kg,"[3]; Mus musculus, P388, ip, i.p. implant, days 1-9, 0.33 mg/kg",145%
same,40th-day survivors,"[3]; day 1, 2.7 mg/kg",Two
same,40th-day survivors,"[3]; days 1,5,9, 1.3 mg/kg",Three
same,40th-day survivors,"[3]; days 1-9, 0.33 mg/kg",Three
"CCOC(=O)Nc1cc2c(c(N)n1)N=C(c1ccccc1)C(C)N2 (centres unmarked) [C6 H5, R4 = CH3]",Mitotic Index 12h,[1]; 0.003 μM,0.69
same,IC50,[2],0.00051 µM
CCOC(=O)Nc1cc2c(c(N)n1)N=C(c1ccc3ccccc3c1)CN2 [2-C10 H7],Mitotic Index 12h,[1]; 0.03 μM,0.60
same,IC50,[2],0.006 µM
same,ILS at 5 mg/kg,"[3]; Mus musculus, P388, ip, i.p. implant, days 1-5, 5 mg/kg",53%
same,ILS at 10 mg/kg,[3]; [8],66%
same,30th-day survivor,"[3]; days 1-5, 10 mg/kg",One
"COC(=O)Nc1nc2ccc(C(=O)c3cccs3)cc2[nH]1 [Nocodazole, reference compound]",Mitotic Index 24h,[1]; 0.3 μM,0.19
same,IC50,[2],0.027 µM
CCOC(=O)Nc1cc2c(c(N)n1)N=C(CN(C)c1ccc(C(=O)OC)cc1)CN2,cytotoxicity in the KB cell culture screen,KB cell culture,showed cytotoxicity
same,activity against leukemia L1210 in mice,leukemia L1210,activity against leukemia L1210 in mice
"CCOC(=O)Nc1cc2c(c(N)n1)N=C(c1ccc(Cl)cc1Cl)CN2 [2,4-Cl2 C6 H3]",Mitotic Index 24h,[1]; 0.3 μM,0.20
same,IC50,[2],0.044 µM
same,ILS at 12.5 mg/kg,[3]; [7],49%
CCOC(=O)Nc1cc2c(c(N)n1)N=C(c1cccc(OC)c1)CN2 [3-CH3 OC6 H4],Mitotic Index 12h,[1]; 0.003 μM,0.56
same,IC50,[2],0.00122 µM
CCOC(=O)Nc1cc2c(c(N)n1)N=C(c1ccc(N)cc1)CN2 [4-H2 NC6 H4],Mitotic Index 24h,[1]; 0.3 μM,0.19
same,IC50,[2],0.023 µM
same,ILS at 50 mg/kg,[3]; [5],35%
"CCOC(=O)Nc1cc2c(c(N)n1)N=C(c1ccccc1)CN2 [C6 H5, Ethyl 5-Amino-1,2-dihydro-3-phenylpyrido(3,4-b)pyrazin-7-ylcarbamate]",Mitotic Index 12h,[1]; 0.03 μM,0.65
same,Mitotic Index 24h,[1]; 0.3 μM,0.54
same,IC50,[2],0.0047 µM
same,antifungal activity,Saccharomyces cerevisiae,active
same,antifungal activity,Asperigillus niger,active
same,antifungal activity,Botrytis cinereae,active
same,antifungal activity,Penicillium italicum,active
same,activity against P388 cells resistant to vincristine (in words),[4]; in mice,active in mice against P388 cells that were resistant to vincristine
same,P388 % ILS,"[4]; vincristine-resistant line of P388, day 1, 12 mg/kg",50%
same,ILS at 12.5 mg/kg,"[3]; Mus musculus, P388, ip, 24 h, i.p. implant, day 1, average of 2 determinations",55%
same,ILS at 4.5 mg/kg,"[3]; Mus musculus, P388, ip, i.p. implant, days 1,5,9, 4.5 mg/kg",42%
same,ILS at 2 mg/kg,"[3]; Mus musculus, P388, ip, i.p. implant, days 1-9, 2 mg/kg",51%
"CCOC(=O)Nc1cc2c(c(N)n1)N=C(c1ccc(Cl)c(Cl)c1)CN2 [3,4-Cl2 C6 H3]",Mitotic Index 12h,[1]; 0.01 μM,0.69
same,Mitotic Index 12h,[1]; 0.03 μM,0.53
same,IC50,[2],0.018 µM
same,ILS at 10 mg/kg,[3]; [8],58%
"CCOC(=O)Nc1cc2c(c(N)n1)N=C(c1ccc(C(F)(F)F)cc1)CN2 [4-CF3 C6 H4, ethyl 5-amino-1,2-dihydro-3-[4'-(trifluoromethyl)phenyl]pyrido[3,4-b]pyrazin-7-ylcarbamate]",Mitotic Index 24h,[1]; 0.3 μM,0.01
same,IC50,[2],0.15 µM
same,ILS at 90 mg/kg,"[3]; Mus musculus, P388, ip, 24 h, i.p. implant, day 1, 90 mg/kg (highest dose tested)",0%
same,ILS at 30 mg/kg,"[3]; Mus musculus, P388, ip, i.p. implant, days 1,5,9, 30 mg/kg (highest dose tested)",0%
same,ILS at 50 mg/kg,[3]; [6],17%
"CCOC(=O)Nc1cc2c(c(N)n1)N=C(c1ccccc1)CN2C [C6 H5, R3 = CH3]",Mitotic Index 12h,[1]; 0.3 μM,0.68
same,IC50,[2],0.16 µM
same,ILS at 100 mg/kg,"[3]; Mus musculus, P388, ip, 24 h, i.p. implant, day 1, 100 mg/kg",12%
